Measured values from patent US5858975A, “Oxyntomodulin peptide having cardiotonic activity and insulin release-bromating activity” (Kyowa Hakko Kogyo Co., Ltd., priority 1994, dated 1999).

What was measured:
eel atrium = experiment: Effect of OXM in eel atrium (isolated atrium, tension transducer); conditions: isolated eel atrium in Ringer's solution, varying OXM concentration
Description: Test Example 1 Effect of OXM in Eel Atrium
An atrium was taken out of an eel, and one end of said atrium was fixed to the bottom of syringe filled with 1.5 ml of Ringer's solution in which was introduced a mixed gas of oxygen and carbon dioxide (95:5), while the other end thereof was connected to a tension transducer (NEC) via a silk thread. 15 μl of an aqueous solution of OXM as diluted with distilled water to have a varying concentration was added to said Ringer's solution, whereupon the tension to be generated by the atrial contraction was measured through the tension transducer. OXM used herein was the product as produced in Example 2. During this measurement, the atrial rate was also counted.

[1] = system: plasma insulin concentration; experiment: Effect of OXM on plasma insulin concentration of anesthetized rat; type: in vivo; conditions: anesthetized fasted male SD rats, cumulative administration via jugular vein, blood 5 minutes after each dose; FIG. 3
Description: Test Example 2 Effect of OXM on Plasma Insulin Concentration of Anesthetized Rat
Male SD rats (370 to 450 g) were bred with no feed for from 15 to 20 hours, and then Na pentobarbital (50 mg/kg) was intra-abdominally administered thereto. A blood-collecting cannula was inserted into the carotid artery of each rat. A dosed cannula was inserted into the jugular vein of each rat. About 600 μl of blood was collected from each rat before the administration of a test chemical, and 5 minutes after each administration of a varying dose of the said test chemical. OXM obtained in Example 2 was added to physiological saline solution to adjust concentration of 1 mg/ml. The said OXM solution was diluted with a physiological saline solution, the thus-diluted solution was accumulatively administered to each rat. The dose of the solution was 1 ml/kg. The collected blood was centrifuged, and its insulin concentration was measured according to the Insulin-EIA Test (Wako Pure Chemicals).

Question: “H-HSQGTFTNDYSKYLETRRAQDFVQWLMNSKRSGGPT-OH [OXM]” was tested. Which “atrial systole (atrial tension)” value (eel atrium; FIG. 1) did it give?
Answer: dose-dependently increases

Question: What about the atrial rate (eel atrium; FIG. 2) of the same substance?
Answer: dose-dependently increases

Question: What about the “dose at which plasma insulin concentration is increased” value [1] of the same substance?
Answer: ≥ 0.01 mg/kg
